Measurements taken from ChEMBL document CHEMBL1201862, “PubChem BioAssay data set” (2004).
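How tested: cells in 96-well plates exposed to compound for 48 hours at five concentrations. GI50 = concentration required for 50% inhibition of growth.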 Calls of active or inactive are those of the source. Cut-off read from the data, not from the text of the source: active = GI50 up to about 1.1 µM and inactive = higher. Where a SMILES comes first, the peptide text is derived from it. The star is where a group is joined. Boc = CC(C)(C)OC(=O)*

Legend:
Assay in all cases: NCI tumour cell line growth inhibition, 48 h
Malme-3M = test system: Malme-3M
LOX IMVI = test system: LOX IMVI
SK-OV-3 = test system: SK-OV-3
CAKI-1 = test system: CAKI-1
PC-3 = test system: PC-3
IGROV-1 = test system: IGROV-1
OVCAR-8 = test system: OVCAR-8
RPMI-8226 = test system: RPMI-8226
CCRF-CEM = test system: CCRF-CEM
U-251 = test system: U-251
SK-MEL-28 = test system: SK-MEL-28
HOP-92 = test system: HOP-92
HOP-62 = test system: HOP-62
MDA-MB-231 = test system: MDA-MB-231
HCT-15 = test system: HCT-15
SK-MEL-5 = test system: SK-MEL-5
HCT-116 = test system: HCT-116
NCI-H23 = test system: NCI-H23
RXF 393 = test system: RXF 393
NCI-H226 = test system: NCI-H226

SMILES	GI50 (Malme-3M)	GI50 (LOX IMVI)	GI50 (SK-OV-3)	GI50 (CAKI-1)	GI50 (PC-3)	GI50 (IGROV-1)	GI50 (OVCAR-8)	GI50 (RPMI-8226)	GI50 (CCRF-CEM)	GI50 (U-251)	GI50 (SK-MEL-28)	GI50 (HOP-92)	GI50 (HOP-62)	GI50 (MDA-MB-231)	GI50 (HCT-15) [µM]	GI50 (SK-MEL-5)	GI50 (HCT-116)	GI50 (NCI-H23)	GI50 (RXF 393)	GI50 (NCI-H226)
COc1ccc(/C=C2\OC(=O)C(Cl)=C2c2ccc(OC)cc2)cc1	> 100 µM (inactive)	> 100 µM (inactive)	> 100 µM (inactive)	> 100 µM (inactive)	63 µM (inactive)	> 100 µM (inactive)	85.7 µM (inactive)	> 100 µM (inactive)	> 100 µM (inactive)	89.3 µM (inactive)	> 100 µM (inactive)	14 µM (inactive)	28 µM (inactive)	> 100 µM (inactive)	> 100	> 100 µM (inactive)				
[O-]c1c2cc(-[n+]3c(-c4ccccc4)cc(-c4ccccc4)cc3-c3ccccc3)cc1CO[C@@H](c1ccccc1)[C@H](c1ccccc1)OCc1cccc(n1)CO[C@@H](c1ccccc1)[C@H](c1ccccc1)OC2	0.0363 µM (active)	0.0498 µM (active)	0.0775 µM (active)	0.367 µM (active)	0.0373 µM (active)	0.0388 µM (active)	0.0488 µM (active)	0.0135 µM (active)	0.0314 µM (active)	0.0285 µM (active)	0.713 µM (active)	0.0322 µM (active)	0.169 µM (active)	0.16 µM (active)	0.74	0.0424 µM (active)	0.0286 µM (active)	0.0569 µM (active)	0.219 µM (active)	
O=C1OC(OCC#CCOC2OC(=O)C(Cl)=C2Cl)C(Cl)=C1Cl (stereo not drawn)		2.65 µM (inactive)			13.7 µM (inactive)	12.9 µM (inactive)	4.31 µM (inactive)	3.57 µM (inactive)	1.92 µM (inactive)		15.3 µM (inactive)		13.6 µM (inactive)		5.85	18.2 µM (inactive)	10.2 µM (inactive)	15.6 µM (inactive)		
Cc1nn(C(=O)Cc2ccccc2)c2c1C(c1ccccc1[N+](=O)[O-])SC(=N)N2 (stereo not drawn)	> 100 µM (inactive)	> 100 µM (inactive)	> 100 µM (inactive)	> 100 µM (inactive)	> 100 µM (inactive)	> 100 µM (inactive)	> 100 µM (inactive)	> 100 µM (inactive)	> 100 µM (inactive)		> 100 µM (inactive)		> 100 µM (inactive)	> 100 µM (inactive)	> 100	> 100 µM (inactive)	> 100 µM (inactive)	> 100 µM (inactive)		> 100 µM (inactive)
O=C(Cc1ccccc1)NN1C(=O)C(Cl)C1c1ccccc1Cl (stereo not drawn)	> 100 µM (inactive)	24.3 µM (inactive)	> 100 µM (inactive)	> 60.3 µM (inactive)		39 µM (inactive)	> 74 µM (inactive)	19.5 µM (inactive)	14.1 µM (inactive)	44.1 µM (inactive)	> 100 µM (inactive)	> 100 µM (inactive)	> 100 µM (inactive)		> 92.9	> 72.6 µM (inactive)	59.4 µM (inactive)	64.1 µM (inactive)	48.8 µM (inactive)	> 100 µM (inactive)
O=C(/C=C1\N=C(c2ccccc2)N(c2ccc3c(c2)Sc2cc(N4C(=O)/C(=C/C(=O)/C=C/c5ccccc5)N=C4c4ccccc4)ccc2N3)C1=O)/C=C/c1ccccc1	26.1 µM (inactive)	30.5 µM (inactive)	18.3 µM (inactive)	42.6 µM (inactive)	19.5 µM (inactive)	37.2 µM (inactive)	42.5 µM (inactive)	31.6 µM (inactive)	24.4 µM (inactive)	24.2 µM (inactive)	65.2 µM (inactive)	67.5 µM (inactive)	48.8 µM (inactive)	38 µM (inactive)	> 100	18.7 µM (inactive)	> 100 µM (inactive)	50.4 µM (inactive)	27.3 µM (inactive)	
COc1cc(C(c2cccc3ccccc23)N2C(=O)CCC2C(=O)NCc2ccccc2)cc(OC)c1OC (stereo not drawn)	> 100 µM (inactive)	> 100 µM (inactive)	> 100 µM (inactive)	> 100 µM (inactive)		> 100 µM (inactive)	> 100 µM (inactive)	55.3 µM (inactive)	93.3 µM (inactive)	> 100 µM (inactive)	> 100 µM (inactive)	> 100 µM (inactive)	> 100 µM (inactive)	> 100 µM (inactive)	> 100	> 100 µM (inactive)	> 100 µM (inactive)	> 100 µM (inactive)	> 100 µM (inactive)	> 100 µM (inactive)
COC(=O)C(Cc1c[nH]c2ccccc12)NC(=O)C(Cc1c[nH]c2ccccc12)NC(=O)C(Cc1c[nH]c2ccccc12)NC(=O)C(Cc1c[nH]c2ccccc12)NC(=O)C(Cc1c[nH]c2ccccc12)NC(=O)C(Cc1c[nH]c2ccccc12)NC(=O)C(Cc1c[nH]c2ccccc12)NC(=O)C(Cc1c[nH]c2ccccc12)NC(=O)OC(C)(C)C (stereo not drawn) (Boc-WWWWWWWW-OMe; configuration not given here)	53.2 µM (inactive)	63.5 µM (inactive)		> 100 µM (inactive)	65.5 µM (inactive)	19.8 µM (inactive)	> 100 µM (inactive)	57.9 µM (inactive)	34.4 µM (inactive)	74.6 µM (inactive)	33.3 µM (inactive)		> 100 µM (inactive)	> 100 µM (inactive)	> 100	24.3 µM (inactive)	15.3 µM (inactive)	29 µM (inactive)		49.3 µM (inactive)
C[N+](C)(C)[BH-](Br)C(O)O (stereo not drawn)		> 100 µM (inactive)		> 100 µM (inactive)	> 100 µM (inactive)	> 100 µM (inactive)			> 100 µM (inactive)	> 100 µM (inactive)	> 100 µM (inactive)	> 100 µM (inactive)	> 100 µM (inactive)	> 100 µM (inactive)	> 100	> 100 µM (inactive)	> 100 µM (inactive)	> 100 µM (inactive)	> 100 µM (inactive)	
COc1ccc(Nc2nc3cc(C(F)(F)F)ccc3nc2C(=O)O)cc1	18.2 µM (inactive)	16.1 µM (inactive)		33.2 µM (inactive)	20.4 µM (inactive)	24 µM (inactive)	19.3 µM (inactive)			13 µM (inactive)	31.7 µM (inactive)		14.9 µM (inactive)	31.6 µM (inactive)	16.6	16.7 µM (inactive)	15.5 µM (inactive)	14.4 µM (inactive)	11.9 µM (inactive)	15.6 µM (inactive)
O=C1CCC(=O)c2sccc2N1	> 100 µM (inactive)	> 100 µM (inactive)	> 100 µM (inactive)	> 100 µM (inactive)		> 100 µM (inactive)	> 100 µM (inactive)	> 100 µM (inactive)	> 100 µM (inactive)	> 100 µM (inactive)	> 100 µM (inactive)	> 100 µM (inactive)	> 100 µM (inactive)		> 100	> 100 µM (inactive)	> 100 µM (inactive)	> 100 µM (inactive)	> 100 µM (inactive)	> 100 µM (inactive)
Cc1cnc2[nH]c(-c3cccc(Cl)c3)cc(=O)c2c1	0.048 µM (active)	0.0438 µM (active)	0.0508 µM (active)	0.0495 µM (active)		0.292 µM (active)	0.159 µM (active)	< 0.0206 µM (active)	0.0425 µM (active)	0.0484 µM (active)	0.315 µM (active)	> 100 µM (inactive)	0.0282 µM (active)	0.0569 µM (active)	0.117	0.0461 µM (active)	0.0361 µM (active)	0.375 µM (active)	0.0367 µM (active)	0.0708 µM (active)
O=C1c2ccccc2C(=O)N1CCc1nc(-c2ccccc2)c[nH]1	24.8 µM (inactive)		> 100 µM (inactive)	> 100 µM (inactive)	> 100 µM (inactive)	> 100 µM (inactive)	> 100 µM (inactive)		> 100 µM (inactive)	> 100 µM (inactive)	> 100 µM (inactive)		> 100 µM (inactive)	> 100 µM (inactive)	> 100	> 100 µM (inactive)	> 100 µM (inactive)	> 100 µM (inactive)		> 100 µM (inactive)
CC(=O)N(C)CCc1c[nH]c2ccccc12	> 100 µM (inactive)	> 100 µM (inactive)	> 100 µM (inactive)	> 100 µM (inactive)	> 100 µM (inactive)	> 100 µM (inactive)	> 100 µM (inactive)	> 100 µM (inactive)	> 100 µM (inactive)	> 100 µM (inactive)	> 100 µM (inactive)		> 100 µM (inactive)	> 100 µM (inactive)	> 100	> 100 µM (inactive)	> 100 µM (inactive)	> 100 µM (inactive)		> 100 µM (inactive)
C=CCOCn1ccc(N)nc1=O	> 100 µM (inactive)	> 100 µM (inactive)	> 100 µM (inactive)	> 100 µM (inactive)	> 100 µM (inactive)	> 100 µM (inactive)	> 100 µM (inactive)	> 100 µM (inactive)	> 100 µM (inactive)		> 100 µM (inactive)		> 100 µM (inactive)	> 100 µM (inactive)	> 100	> 100 µM (inactive)	> 100 µM (inactive)	> 100 µM (inactive)		> 100 µM (inactive)
Cc1ccc(-c2nc(Cc3n[nH]c(-c4ccc(C)cc4)n3)n[nH]2)cc1		> 100 µM (inactive)	> 100 µM (inactive)		> 100 µM (inactive)	> 100 µM (inactive)	10.3 µM (inactive)	> 100 µM (inactive)	> 100 µM (inactive)	3.71 µM (inactive)	> 100 µM (inactive)	> 100 µM (inactive)	29 µM (inactive)	> 100 µM (inactive)	> 100	> 100 µM (inactive)	36.1 µM (inactive)	18.3 µM (inactive)	21.1 µM (inactive)	
